Laboratory results from patent US9713648B2, “Weekly dosing regimens for anti-CD30 VC-PAB-MMAE antibody drug-conjugates” (Seattle Genetics, Inc., priority 2009, dated 2017).

How the values were obtained:
Format in all cases: in vivo, human
sALCL = assay: Phase 1 weekly dosing study: response rate in sALCL patients; details: sALCL patients (4/5), weekly 0.4-1.4 mg/kg
Procedure: (§1) A multicenter, phase 1, weekly dosing, dose escalation study was conducted in pts with refractory or relapsed HL or systemicALCL. The cAC10-MC-vc-PAB-MMAE antibody drug conjugate was administered weekly at doses of 0.4-1.4 mg/kg (2-hr IV infusions). Patients with […] or better after two 21-day cycles (6 doses) were eligible to continue treatment with the antibody drug conjugate.
(§2) Results: In 34 patients, median age was 34 yrs (range 13-82). Patients received a median of 5 prior therapies; 62% received an autologous SCT. MTD was exceeded at 1.4 mg/kg.

HL = assay: Phase 1 weekly dosing study: response rate in HL patients; details: weekly 0.4-1.4 mg/kg
Procedure: as §1, §2

[1] = tested on: refractory or relapsed HL or systemicALCL; assay: Phase 1 weekly dosing, dose escalation study: best clinical response, all evaluable patients; details: for Best Clinical Response: CR / Best Clinical Response: PD / Best Clinical Response: PR / Best Clinical Response: SD: number of patients
Procedure: as §1, §2

[2] = Phase 1 weekly dosing study: exposure (AUC); details: weekly doses of 0.4-1.4 mg/kg
Procedure: as §1, §2

[3] = Phase 1 weekly dosing study: tolerability, adverse events, MTD/DLT
Procedure: as §1
The grade 4 events were neutropenia (1 subject), and hyperglycemia (1). The grade 3 events were neutropenia (3), diarrhea (1), paresthesia (1), vomiting (1), and leucopenia (1). The grade 2 or lower adverse events were nausea (9), fatigue (8), peripheral neuropathy (6), neutropenia (2), dizziness (4), hyperglycemia (3), and paresthesia (3). The dose limiting toxicity was at 1.4 mg/kg.

[4] = Total of all dose groups 0.4-1.4 mg/kg, N=27
[5] = dose group 0.6 mg/kg weekly, N=3
[6] = dose group 1.0 mg/kg weekly, N=6
[7] = dose group 1.2 mg/kg weekly, N=5
[8] = dose group 1.4 mg/kg weekly, N=3
[9] = number of subjects among 34 treated patients

cAC10-MC-vc-PAB-MMAE: chimeric AC10 antibody conjugated to the drug MMAE through a MC-vc-PAB linker; anti-CD30 antibody-drug conjugate
Complete Response (sALCL): 80% (4/5)
Overall Response Rate (CR + PR) (sALCL): 80% (4/5)
Complete Response (HL; HL Patients (6/22)): 27% (6/22)
Overall Response Rate (CR + PR) (HL; HL Patients (9/22)): 41% (9/22)
observed time to response ([1]; 1 mg/kg dose, weekly): approximately 8 wks
Complete Response ([1]; All Patients (10/27), weekly 0.4-1.4 mg/kg): 37% (10/27)
Overall Response Rate (CR + PR) ([1]; All Patients (13/27), weekly 0.4-1.4 mg/kg): 48% (13/27)
Tumor Reductions ([1]; All Patients (22/27), weekly 0.4-1.4 mg/kg): 81% (22/27)
CRs observed ([1]; at higher doses): Multiple
Best Clinical Response: CR [1, 4]: 10 ^
Best Clinical Response: PD [1, 4]: 3
Best Clinical Response: PR [1, 4]: 3
Best Clinical Response: SD [1, 4]: 22
Best Clinical Response: SD ([1]; dose group 0.4 mg/kg weekly, N=4, includes 1 patient with ALCL): 4^+
Best Clinical Response: PD [1, 5]: 1
Best Clinical Response: PR [1, 5]: 1
Best Clinical Response: SD [1, 5]: 1
Best Clinical Response: PD ([1]; dose group 0.8 mg/kg weekly, N=6): 1
Best Clinical Response: SD ([1]; dose group 0.8 mg/kg weekly, N=6, 1 pediatric patient): 1^P
Best Clinical Response: CR ([1]; dose group 0.8 mg/kg weekly, N=6, includes 2 patients with ALCL): 4^++
Best Clinical Response: PR [1, 6]: 1
Best Clinical Response: SD [1, 6]: 1
Best Clinical Response: CR ([1]; dose group 1.0 mg/kg weekly, N=6, includes 2 patients with ALCL): 4^++
Best Clinical Response: PD [1, 7]: 1
Best Clinical Response: PR [1, 7]: 1
Best Clinical Response: SD ([1]; dose group 1.2 mg/kg weekly, N=5, includes 1 pediatric patient): 3^P
Best Clinical Response: CR [1, 8]: 2^
Best Clinical Response: SD [1, 8]: 1
time within which multiple complete responses were observed ([1]; phase I study, weekly regimen): ≤ 8 weeks
Exposure (AUC) [2]: increased relative to dose level
grade 5 events ([3]; 34 treated patients): no grade 5 events
tolerability ([3]; 34 treated patients): generally well tolerated
grade 2 or lower adverse events: dizziness [3, 9]: 4
grade 2 or lower adverse events: fatigue [3, 9]: 8
grade 2 or lower adverse events: hyperglycemia [3, 9]: 3
grade 2 or lower adverse events: nausea [3, 9]: 9
grade 2 or lower adverse events: neutropenia [3, 9]: 2
grade 2 or lower adverse events: paresthesia [3, 9]: 3
grade 2 or lower adverse events: peripheral neuropathy [3, 9]: 6
grade 3 events: diarrhea [3, 9]: 1
grade 3 events: leucopenia [3, 9]: 1
grade 3 events: neutropenia [3, 9]: 3
grade 3 events: paresthesia [3, 9]: 1
grade 3 events: vomiting [3, 9]: 1
grade 4 events: hyperglycemia [3, 9]: 1
grade 4 events: neutropenia [3, 9]: 1 subject
dose limiting toxicity (dose at which it occurred) ([3]; weekly dosing): 1.4 mg/kg
MTD (exceeded at) ([3]; weekly dosing, 2-hr IV infusions, 34 patients): < 1.4 mg/kg
